Test results as given in paper PMC7181201, “Dual P-Glycoprotein and CA XII Inhibitors: A New Strategy to Reverse the P-gp Mediated Multidrug Resistance (MDR) in Cancer Cells” (Molecules, 2020).
Several values for one entry are separate records, joined by “and”; a condition that tells them apart may be missing. Equal values may be shown once.

Tests used:
K562/DOX cells = assay: Enhancement of doxorubicin cytotoxicity on K562/DOX cells (MTT); format: cell-based, human; conditions: 72 h
Description: (§1) To evaluate the enhancement of doxorubicin toxicity in the presence of the tested compounds, the cells, in exponential growth phase, were seeded at 10^4 cells/well and solutions of either compounds or doxorubicin, or a solution of doxorubicin in combination with the compounds, were added to the wells repeated in quadruplicate. […] The MTT working solution was then added and plates were further incubated for 3 h. Following incubation cells and formazan crystals were inspected microscopically. The supernatant was then carefully removed by slow aspiration and the formazan crystals were dissolved in […] of acidified isopropanol solution. The absorbance of the solution was then read on an automated plate reader at a wavelength of 570 nm. The increase in the toxicity of doxorubicin was quantified by the ratio between the growth of the cell sample treated with IC20 of doxorubicin and that of the cell sample treated with IC20 of doxorubicin in combination with the various concentrations of the tested compounds.

hCA IX = target: T1, hCA IX (Homo sapiens, UniProt Q16790); assay: Stopped-flow CO2 hydrase assay, hCA IX; format: biochemical; conditions: for Ki: stopped flow, mean from 3 assays; for more potent on hCA IX than on hCA XII: ratio of Ki values
T1 construct: made in house
Description: (§2) An SX.18MV-R Applied Photophysics (Oxford, UK) stopped-flow instrument was used to assay the catalytic/inhibition of various CA isozymes. […] Saturated CO2 solutions in water at 25 °C were used as a substrate. Stock solutions of inhibitors were prepared at a concentration of 10 μM (in DMSO-water 1:1, v/v) and dilutions up to 0.01 nM done with the assay buffer mentioned above. […] Inhibitor and enzyme solutions were preincubated together for 10 min at room temperature prior to the assay, in order to allow for the formation of the E–I complex. […] The inhibition constants were obtained by non-linear least-squares methods using the Cheng–Prusoff equation, as reported earlier, and represent the mean from at least three different determinations. All CA isozymes used here were recombinant proteins obtained as reported earlier by our group.

P-gp [1] = target: T2, P-gp (Homo sapiens, UniProt P08183); assay: Rhodamine-123 uptake test on LoVo/DOX cells (flow cytometry); format: cell-based
T2 construct: doxorubicin resistant K562/DOX cell line overexpresses almost exclusively the transporter membrane protein P-gp; endogenous in cells; host or cells: K562/DOX (doxorubicin-selected human erythroleukemia cells)
T2 sequence (P08183 whole entry): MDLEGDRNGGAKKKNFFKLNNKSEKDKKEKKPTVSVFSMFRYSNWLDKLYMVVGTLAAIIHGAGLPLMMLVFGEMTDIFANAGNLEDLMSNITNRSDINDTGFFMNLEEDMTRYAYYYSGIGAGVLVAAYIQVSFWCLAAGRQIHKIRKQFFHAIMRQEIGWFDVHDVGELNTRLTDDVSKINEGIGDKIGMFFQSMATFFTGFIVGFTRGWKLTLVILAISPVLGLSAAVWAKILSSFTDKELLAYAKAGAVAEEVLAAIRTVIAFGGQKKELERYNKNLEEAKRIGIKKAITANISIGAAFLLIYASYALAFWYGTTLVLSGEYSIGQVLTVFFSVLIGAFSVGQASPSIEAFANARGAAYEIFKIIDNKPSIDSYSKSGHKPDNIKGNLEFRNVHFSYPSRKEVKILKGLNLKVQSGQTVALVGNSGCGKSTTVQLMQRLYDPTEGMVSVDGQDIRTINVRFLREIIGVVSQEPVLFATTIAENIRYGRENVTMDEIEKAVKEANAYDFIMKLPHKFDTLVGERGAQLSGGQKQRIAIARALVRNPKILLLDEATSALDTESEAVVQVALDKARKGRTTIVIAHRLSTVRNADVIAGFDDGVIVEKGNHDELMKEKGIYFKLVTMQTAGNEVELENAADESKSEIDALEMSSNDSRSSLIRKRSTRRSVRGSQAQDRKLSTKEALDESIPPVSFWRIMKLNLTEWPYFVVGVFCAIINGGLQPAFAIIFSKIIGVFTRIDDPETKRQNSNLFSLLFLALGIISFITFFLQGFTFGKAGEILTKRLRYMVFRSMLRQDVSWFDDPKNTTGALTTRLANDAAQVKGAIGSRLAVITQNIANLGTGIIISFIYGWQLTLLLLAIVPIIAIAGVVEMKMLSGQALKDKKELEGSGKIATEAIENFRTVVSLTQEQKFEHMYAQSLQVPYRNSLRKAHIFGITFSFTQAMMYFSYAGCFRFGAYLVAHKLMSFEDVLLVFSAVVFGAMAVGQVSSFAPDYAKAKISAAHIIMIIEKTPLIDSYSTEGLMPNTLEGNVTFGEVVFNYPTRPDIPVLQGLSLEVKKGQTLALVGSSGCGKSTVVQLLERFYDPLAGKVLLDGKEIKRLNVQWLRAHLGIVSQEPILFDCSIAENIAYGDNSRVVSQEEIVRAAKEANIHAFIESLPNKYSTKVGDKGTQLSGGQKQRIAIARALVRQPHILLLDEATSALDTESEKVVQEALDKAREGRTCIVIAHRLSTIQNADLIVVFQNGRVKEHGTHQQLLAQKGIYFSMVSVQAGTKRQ
Description: The selected compounds were preliminary studied at 3, 10 and 30 µM concentrations by the MTT (3-(4,5-dimethylthiazolyl-2)-2,5-diphenyltetrazolium bromide) assay to evaluate their intrinsic cytotoxicity on LoVo/DOX cell line.
(§3) An aliquot of cells (control) was incubated with the fluorochrome in the absence of inhibitors.
(§4) At the end of the uptake, cells were sedimented, washed twice in ice-cold PBS, placed in PBS on ice, and kept in the dark until flow cytometric analysis.
(§5) The histograms were generated by program GraphPad Prism 5 (GraphPad Prism software, Inc., San Diego, CA, USA); the data were obtained from the ratio between the average fluorescence intensity of the samples preincubated with the compounds under study and subsequently exposed to rhodamine, and the fluorescence of the sample exposed only to the rhodamine.

LoVo/DOX cells = assay: Enhancement of doxorubicin cytotoxicity on LoVo/DOX cells (MTT); format: cell-based, human; conditions: 72 h
Description: as §1

hCA XII = target: T3, hCA XII (Homo sapiens, UniProt O43570); assay: Stopped-flow CO2 hydrase assay, hCA XII; format: biochemical; conditions: stopped flow, mean from 3 assays
T3 construct: made in house
T3 sequence (O43570 25-354): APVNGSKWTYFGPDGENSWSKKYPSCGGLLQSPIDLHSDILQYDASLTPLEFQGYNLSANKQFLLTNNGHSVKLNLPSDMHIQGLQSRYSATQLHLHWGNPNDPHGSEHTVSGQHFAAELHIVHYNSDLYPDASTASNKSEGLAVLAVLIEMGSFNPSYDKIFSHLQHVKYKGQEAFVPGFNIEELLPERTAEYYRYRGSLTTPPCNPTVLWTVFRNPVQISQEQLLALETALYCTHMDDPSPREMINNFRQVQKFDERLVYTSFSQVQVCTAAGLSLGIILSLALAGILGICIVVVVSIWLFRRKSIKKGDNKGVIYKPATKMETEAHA
Description: as §2

P-gp [2] = target: T2, P-gp; assay: Rhodamine-123 uptake test on K562/DOX cells (flow cytometry); format: cell-based
Description: The results were expressed as the FR (fluorescence ratio), which is the ratio between the average fluorescence intensity of rhodamine in the presence and in the absence of modulators. Value 1 was attributed to the average fluorescence intensity of the samples exposed only to rhodamine.
as §3, §4, §5

hCA I = target: T4, hCA I (Homo sapiens, UniProt P00915); assay: Stopped-flow CO2 hydrase assay, hCA I; format: biochemical; conditions: mean from 3 assays
T4 construct: made in house
T4 sequence (P00915 whole entry): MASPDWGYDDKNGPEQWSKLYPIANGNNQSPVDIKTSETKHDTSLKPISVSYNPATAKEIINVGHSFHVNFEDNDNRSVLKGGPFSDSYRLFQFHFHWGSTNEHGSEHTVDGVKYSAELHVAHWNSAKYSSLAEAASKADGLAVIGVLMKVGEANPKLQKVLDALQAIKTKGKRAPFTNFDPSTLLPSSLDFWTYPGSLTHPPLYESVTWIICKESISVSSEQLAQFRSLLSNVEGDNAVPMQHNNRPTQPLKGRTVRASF
Description: as §2

hCA II = target: T5, hCA II (Homo sapiens, UniProt P00918); assay: Stopped-flow CO2 hydrase assay, hCA II; format: biochemical; conditions: for Ki: stopped flow, mean from 3 assays; for hCA II vs. hCA XII preference: ratio of Ki values
T5 construct: made in house
Description: as §2

[3] = doxorubicin 0.5 µM (IC20) + compound 3 µM
[4] = doxorubicin 0.5 µM (IC20) + compound 10 µM
[5] = doxorubicin 0.3 µM (IC20) + compound 3 µM
[6] = doxorubicin 0.3 µM (IC20) + compound 10 µM

| Structure (SMILES) | Ki (hCA IX) [nM] | Ki (hCA XII) [nM] | FR (fluorescence ratio, Rhd 123 uptake with/without modulator) (P-gp [2]; compound 3 µM) | FR (fluorescence ratio, Rhd 123 uptake with/without modulator) (P-gp [2]; compound 30 µM) | Ki (hCA I) [nM] | Ki (hCA II) [nM] | hCA II vs. hCA XII preference (hCA II) [times] | FR (fluorescence ratio, Rhd 123 uptake) (P-gp [1]; compound 3 µM) | more potent on hCA IX than on hCA XII (hCA IX) | Cell Growth (%) (K562/DOX cells; [3]) | Cell Growth (%) (K562/DOX cells; [4]) | FR (fluorescence ratio, Rhd 123 uptake) (P-gp [1]; compound 10 µM) | Cell Growth (%) (LoVo/DOX cells; [5]) | Cell Growth (%) (LoVo/DOX cells; [6]) | Cell Growth (%) (LoVo/DOX cells; doxorubicin 0.3 µM (IC20) + compound 10 µM, listed as verapamil) |
| --- | --- | --- | --- | --- | --- | --- | --- | --- | --- | --- | --- | --- | --- | --- | --- |
| COc1cc(/C=C/C(=O)OCCCN(C)CCCCCOC(=O)COc2ccc3ccc(=O)oc3c2)cc(OC)c1OC [Compound 2, (E)-3-(methyl(5-(2-((2-oxo-2H-chromen-7-yl)oxy)acetoxy)pentyl)amino)propyl 3-(3,4,5-trimethoxyphenyl)acrylate] | 47.4 | 8.9 | 1.57 | 5.81 | > 10000 | > 10000 |  |  |  | 85.6 ± 4.7% | 65.0 ± 5.2 | 10.50 | 82.7 ± 10.2% | 41.5% and 41.5 ± 7.3% |  |
| COc1cc(/C=C/C(=O)OCCCCCCN(C)CCCOC(=O)COc2ccc3ccc(=O)oc3c2)cc(OC)c1OC [Compound 5, (E)-6-(methyl(3-(2-((2-oxo-2H-chromen-7-yl)oxy)acetoxy)propyl)amino)hexyl 3-(3,4,5-trimethoxyphenyl)acrylate] | 26.7 | 6.4 | 3.67 | 5.85 | > 10000 | > 10000 |  |  |  | 51.7% and 51.7 ± 3.0% |  | 6.30 | 58.0% and 58.0 ± 2.4% | 51.0% and 51.0 ± 1.9% |  |
| COc1cc(/C=C/C(=O)OCCCCCCCN(C)CCOC(=O)COc2ccc3ccc(=O)oc3c2)cc(OC)c1OC [Compound 7, (E)-7-(methyl(2-(2-((2-oxo-2H-chromen-7-yl)oxy)acetoxy)ethyl)amino)heptyl 3-(3,4,5-trimethoxyphenyl)acrylate] | 29.7 | 9.1 | 2.08 | 4.48 | > 10000 | > 10000 |  |  |  | 78.1 ± 4.9% |  | 12.60 | 61.0% and 61.0 ± 3.3% | 34.9% and 34.9 ± 8.1% |  |
| COc1cc(/C=C/C(=O)OCCCCCCCN(C)CCCCCCCOC(=O)COc2ccc3ccc(=O)oc3c2)cc(OC)c1OC [Compound 8, (E)-7-(methyl(7-(2-((2-oxo-2H-chromen-7-yl)oxy)acetoxy)heptyl)amino)heptyl 3-(3,4,5-trimethoxyphenyl)acrylate] | 24.2 | 7.1 | 2.33 | 4.15 | > 10000 | > 10000 |  |  |  | 82.0 ± 5.9% |  | 9.90 | 68.0% and 68.0 ± 2.9% | 32.2% and 32.2 ± 10.7% |  |
| COc1cc(/C=C/C(=O)OCCCCCCN(C)CCCCOC(=O)c2ccc(S(N)(=O)=O)cc2)cc(OC)c1OC [Compound 20, (E)-4-(methyl(6-((3-(3,4,5-trimethoxyphenyl)acryloyl)oxy)hexyl)amino)butyl 4-sulfamoyl benzoate] | 33.9 | 41.7 | 1.01 | 2.58 | 84.5 | 14 | 3 |  |  |  |  |  |  |  |  |
| COc1cc(/C=C/C(=O)OCCCCCCCN(C)CCOC(=O)c2ccc(S(N)(=O)=O)cc2)cc(OC)c1OC [Compound 21, (E)-2-(methyl(7-((3-(3,4,5-trimethoxyphenyl)acryloyl)oxy)heptyl)amino)ethyl 4-sulfamoyl benzoate] | 68.4 | 35.2 | 1.30 | 3.70 | 533 | 48.9 |  | negligible |  | 78.8 ± 10.2% | 68.7 ± 3.6 |  | 82.0 ± 2.7% | 59.0 ± 3.3% |  |
| COc1ccc(CCN(C)CCCC(C#N)(c2ccc(OC)c(OC)c2)C(C)C)cc1OC (centres unmarked) [Ver, verapamil, reference compound] |  |  |  |  |  |  |  |  |  | 69.0 ± 0.03% | 62.0 ± 0.1 |  | 54.0 ± 0.06% | 51.0 ± 0.09% | 51.0 |

Now from value to compound, other results behind:

| Ki (hCA IX) [nM] | Ki (hCA XII) [nM] | FR (fluorescence ratio, Rhd 123 uptake with/without modulator) (P-gp [2]; compound 3 µM) | FR (fluorescence ratio, Rhd 123 uptake with/without modulator) (P-gp [2]; compound 30 µM) | Ki (hCA I) [nM] | Ki (hCA II) [nM] | hCA II vs. hCA XII preference (hCA II) [times] | FR (fluorescence ratio, Rhd 123 uptake) (P-gp [1]; compound 3 µM) | more potent on hCA IX than on hCA XII (hCA IX) | Structure (SMILES) | Cell Growth (%) (K562/DOX cells; [3]) | Cell Growth (%) (K562/DOX cells; [4]) | FR (fluorescence ratio, Rhd 123 uptake) (P-gp [1]; compound 10 µM) | Cell Growth (%) (LoVo/DOX cells; [5]) | Cell Growth (%) (LoVo/DOX cells; [6]) | Cell Growth (%) (LoVo/DOX cells; doxorubicin 0.3 µM (IC20) + compound 10 µM, listed as verapamil) |
| --- | --- | --- | --- | --- | --- | --- | --- | --- | --- | --- | --- | --- | --- | --- | --- |
| 172 | 96.7 | 2.85 | 3.20 | 73.7 | 445 |  |  |  | COc1cc(/C=C/C(=O)OCCCCCCCN(C)CCCCCCCOC(=O)c2ccc(S(N)(=O)=O)cc2)cc(OC)c1OC [Compound 22, (E)-7-(methyl(7-((3-(3,4,5-trimethoxyphenyl)acryloyl)oxy)heptyl)amino)heptyl 4-sulfamoyl benzoate] |  |  |  |  |  |  |
| 26.6 | 63.7 | 1.00 | 1.66 | 284 | 128 |  |  | twice | COc1cc(C(=O)OCCCN(C)CCCCCOC(=O)c2ccc(S(N)(=O)=O)cc2)cc(OC)c1OC [Compound 23, 3-(methyl(5-((4-sulfamoylbenzoyl)oxy)pentyl)amino)propyl 3,4,5-trimethoxybenzoate] |  |  |  |  |  |  |
| 25.3 | 57.6 | 1.42 | 2.88 | 83.5 | 8.9 | 6.5 |  | twice | COc1cc(C(=O)OCCCCCCN(C)CCCOC(=O)c2ccc(S(N)(=O)=O)cc2)cc(OC)c1OC [Compound 24, 6-(methyl(3-((4-sulfamoylbenzoyl)oxy)propyl)amino)hexyl 3,4,5-trimethoxybenzoate] |  |  |  |  |  |  |
| 117 | 8 | 1.44 | 3.50 | 42.7 | 90.2 |  | negligible |  | COc1cc(C(=O)OCCCCCCCN(C)CCOC(=O)c2ccc(S(N)(=O)=O)cc2)cc(OC)c1OC [Compound 25, 7-(methyl(2-((4-sulfamoylbenzoyl)oxy)ethyl)amino)heptyl 3,4,5-trimethoxybenzoate] | 80.3 ± 5.9% | 76.0 ± 3.7 |  | 81.7 ± 2.0% |  |  |
| 28.2 | 31.3 | 1.08 | 2.03 | 617 | 422 |  |  |  | CN(CCCCCCOC(=O)c1c2ccccc2cc2ccccc12)CCCOC(=O)c1ccc(S(N)(=O)=O)cc1 [Compound 27, 6-(methyl(3-((4-sulfamoylbenzoyl)oxy)propyl)amino)hexyl anthracene-9-carboxylate] |  |  |  |  |  |  |
| 20.6 | 23.5 | 1.45 | 4.25 | 238 | 475 |  |  |  | CN(CCCCCCCOC(=O)c1c2ccccc2cc2ccccc12)CCOC(=O)c1ccc(S(N)(=O)=O)cc1 [Compound 28, 7-(methyl(2-((4-sulfamoylbenzoyl)oxy)ethyl)amino)heptyl anthracene-9-carboxylate] |  |  |  |  |  |  |
